Peptide text beside a SMILES is read from it.
How the values were obtained:
[1] = target: T1, Angiotensin I-converting enzyme (ACE) from rabbit lungs (Oryctolagus cuniculus, UniProt P12822); test: Stability after in vitro treatment with digestive enzymes (pepsin, trypsin); format: in vitro ADME; conditions: 0.4 mg/mL, 2 h, read-out ACE inhibition rate, n = 3
T1 construct: Angiotensin I-converting enzyme (ACE) from rabbit lungs (0.1 U); purchased Sigma-Aldrich (St. Louis, MO, USA); host or cells: rabbit lung tissue
T1 sequence (P12822 34-1310): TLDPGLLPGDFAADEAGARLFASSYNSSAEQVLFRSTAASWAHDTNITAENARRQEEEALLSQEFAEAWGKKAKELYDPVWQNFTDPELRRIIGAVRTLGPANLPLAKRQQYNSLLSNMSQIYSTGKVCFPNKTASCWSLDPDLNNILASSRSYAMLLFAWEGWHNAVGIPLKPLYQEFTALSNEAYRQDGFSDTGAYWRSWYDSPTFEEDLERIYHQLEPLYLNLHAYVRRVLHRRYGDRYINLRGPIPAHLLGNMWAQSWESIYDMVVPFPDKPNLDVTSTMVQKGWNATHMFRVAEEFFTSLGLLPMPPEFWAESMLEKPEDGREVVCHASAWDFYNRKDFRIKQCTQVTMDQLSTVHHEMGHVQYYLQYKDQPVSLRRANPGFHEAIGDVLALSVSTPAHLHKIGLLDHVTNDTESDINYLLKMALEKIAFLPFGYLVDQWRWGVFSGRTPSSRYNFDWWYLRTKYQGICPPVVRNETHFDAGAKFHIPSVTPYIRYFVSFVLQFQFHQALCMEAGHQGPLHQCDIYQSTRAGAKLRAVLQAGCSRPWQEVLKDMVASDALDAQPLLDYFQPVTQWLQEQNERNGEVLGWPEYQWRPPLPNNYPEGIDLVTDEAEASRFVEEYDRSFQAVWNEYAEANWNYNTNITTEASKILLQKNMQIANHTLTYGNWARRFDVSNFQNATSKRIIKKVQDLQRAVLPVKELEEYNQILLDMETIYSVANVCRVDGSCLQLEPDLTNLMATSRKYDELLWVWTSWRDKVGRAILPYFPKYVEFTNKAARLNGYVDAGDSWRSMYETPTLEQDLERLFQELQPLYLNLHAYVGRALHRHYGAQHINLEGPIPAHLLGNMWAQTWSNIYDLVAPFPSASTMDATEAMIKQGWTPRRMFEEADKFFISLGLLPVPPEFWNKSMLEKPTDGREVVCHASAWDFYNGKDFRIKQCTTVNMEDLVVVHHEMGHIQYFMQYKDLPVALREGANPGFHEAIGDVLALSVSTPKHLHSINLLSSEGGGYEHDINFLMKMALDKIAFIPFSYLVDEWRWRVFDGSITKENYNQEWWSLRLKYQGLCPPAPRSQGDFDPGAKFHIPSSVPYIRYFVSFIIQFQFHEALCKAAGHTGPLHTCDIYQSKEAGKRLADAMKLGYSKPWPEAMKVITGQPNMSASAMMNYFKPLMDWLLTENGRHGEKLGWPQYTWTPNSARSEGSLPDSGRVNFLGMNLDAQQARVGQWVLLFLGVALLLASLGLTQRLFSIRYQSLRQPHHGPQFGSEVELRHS
Method: (§1) The ACE inhibition rate was determined using High-Performance Liquid Chromatography (HPLC). In summary, 60 μL of HHL (2.5 mM) and 20 μL of samples were mixed and incubated at 37 °C for 5 min before 40 μL of ACE (0.05 U/mL) was added. The mixture was incubated at 37 °C for 1 h. Finally, the reaction was terminated by adding 120 μL of HCl solution (1 mol/L). The content of HA in the reaction system was detected by a PITC pre-column derivatization HPLC (Shimadzu LC-20AT) with a column C18 Hypersil ODS2 (4.6 mm×250 mm, 5 μm) at 228 nm. Isocratic elution was processed with the acetonitrile-water (volume ratio 1:3, each containing 0.1% TFA) solution at a constant flow rate of 1 mL/min. The ACE inhibition rate (%) was calculated based on the following formula:ACE inhibition rate (%) = [(A0 − A1) / A0] × 100%(4) where A0 and A1 equal the HA peak areas of the blank control and sample, respectively.
The stability of VVVPQN after in vitro treatment with digestive enzymes was carried out by the method of Chai with some modifications. Briefly, in a water bath at 37 °C, VVVPQN (0.4 mg/mL) was first digested with 2% (w/w) pepsin at pH 2.0 for 2 h. The pH was then adjusted to 7.0 before trypsin was added at a 1:50 enzyme to substrate ratio. […] The stability of VVVPQN was evaluated by comparing the ACE inhibition rate before and after the digestion.

[2] = target: T1, Angiotensin I-converting enzyme (ACE) from rabbit lungs; test: ACE inhibitory activity (HHL substrate, HPLC of hippuric acid); format: biochemical
Text: Camellia seeds were purchased from Quzhou City, Zhejiang Province. Angiotensin I-converting enzyme (ACE) from rabbit lungs (0.1 U) (Table A1), ACE substrate hippuryl-histidyl-leucine (HHL) and hippuric acid (HA) standards were purchased from Sigma-Aldrich (St. Louis, MO, USA). Neutral protease (50,000 U/g), alkaline protease (200,000 U/g), papain (800,000 U/g), trypsin (250,000 U/g), and Sephadex G-25 were purchased from Beijing Solarbio Science & Technology Co., Ltd. (Beijing, China). All other chemicals used were of analytical grade.
as §1, with “The ACE inhibition rate (%) was calculated based on the following formula:ACE inhibition rate (%) = [(A0 − A1) / A0] × 100%(4) where A0 and A1 equal the HA peak areas of the blank control and sample, respectively.” left out

CC(C)[C@H](N)C(=O)N[C@H](C(=O)N[C@H](C(=O)N1CCC[C@H]1C(=O)N[C@@H](CCC(N)=O)C(=O)N[C@@H](CC(N)=O)C(=O)O)C(C)C)C(C)C [VVVPQN, Val-Val-Val-Pro-Gln-Asn] (H-VVVPQN-OH)
Change of ACE inhibitory activity after simulated gastric digestion ([1]; 2% (w/w) pepsin, pH 2.0, 37 °C): decreased significantly
Change of ACE inhibitory activity after further simulated intestinal digestion ([1]; after pepsin: trypsin 1:50 enzyme to substrate, pH 7.0, 37 °C): did not change significantly
IC50 ([2]; from regression equation y = 23.595 ln(x) + 98.175): 199 µM
ACE inhibitory activity ([2]; synthetic peptide 0.5 mg/mL, HHL 2.5 mM, ACE 0.05 U/mL, 37 °C 1 h, HPLC 228 nm, mean, n = 3): 80.46%
